# Counter-ions that a name gives are not always drawn. Like-named read-outs stand apart in the source and are kept apart here.
# What was measured:
# [1] = test system: Line 139 White Leghorn Chickens; conditions: for Female / Male / Und. (Undetermined): gonadal sex type at day 14, number of embryos; for Survived day 14: number of embryos
# Method: (§1) The inhibitor was dissolved in saline at concentrations ranging form 1 mg/ml to 100 mg/ml and the injection volume ranged from 20 µl to 100 µl producing doses of 20 µg to 10 mg. Injections were made with a 23 G x 1 inch needle. A light source was used to orient the eggs and the injection is made under the air sac into the egg white surrounding the developing embryo. The hole was sealed with Scotch tape and the eggs were placed in a humidified, rocking incubator. At day fourteen of incubation, the embryos were removed form their shells and dissected to observe development of the gonads.
# [2] = test system: Line 67 White Leghorn embryos; conditions: in vivo
# Method: as §1
# [3] = in vivo; conditions: chicken, embryos in ovo, %Hatched
# Method: as §1
# (§2) The procedures are the same as described above.
# [4] = test system: Abor Acre x Abor Acre Hybrid Broiler Chickens; assay: in vivo
# Method: as §1, §2
# [5] = test system: turkey embryos
# Method: A light source was used to orient the eggs and the injection is made under the air sac into the egg white surrounding the developing embryo. The hole was sealed with Scotch tape and the eggs were placed in a humidified, rocking incubator. The birds were allowed to hatch and the phenotypic and genotypic sex determined.
# [6] = test system: autosexing strains of chickens
# Method: (§3) To more easily monitor changes in development as a function of age according to genetic sex two different autosexing strains of chickens were treated as above. All chickens were allowed to reach sexual maturity. […] One of the three was killed after 24 weeks and the remaining two (tag numbers 1977 and 1981) were killed after 31 weeks. Prior to killing blood was taken from each animal and used to determine sex steroid levels. At the time of killing the gonads were removed and fixed for histology in Bouin's fixative.
# The right gonad and oviduct of the normal female begins to regress during embryogenesis and at maturity females have a single ovary and oviduct. The remaining left ovary consists of a series of follicles staged to mature at daily intervals.
# [7] = test system: hybrids used in Example 3; conditions: for Estradiol / Testosterone: serum
# Method: as §3
# Estradiol and testosterone levels were determined in serum samples using commercial RIA assay kits which are well known in the art.
# [8] = test system: gonads from control males and treated females; conditions: in vivo
# Method: Histological examination of gonads from control males and treated females at 31 weeks of age was carried out on tissue fixed in Bouin's solution prior to embedding in paraffin. Sections were stained with hematoxylin and eosin.
# [9] = test system: F₁ Hybrids of Rhode Island Males Crossed With Plymouth Barred Rock Females; assay: Gonadal sex type of 14 day embryos after in ovo injection; format: in vivo, chicken
# Method: Fertilized chicken embryos were injected on day 5 of incubation with the aromatase inhibitor 1,4,6-androstatriene-3,17-dione. The inhibitor was dissolved in 1,2-propane-diol at a concentration of 20 mg/ml and the injection volume was 100 µl producing a dose of 2 mg.
# [10] = test system: female Mullerian ducts; conditions: chick embryo; Huston et al., Gen. Comp. Endocrinol. 57: 88-102 (1985); cited from earlier work
# [11] = Experiment 1, 20 µg injected on day 5
# [12] = Experiment 1, 100 µg injected on day 5
# [13] = Experiment 1, 2 mg injected on day 5
# [14] = Experiment 1, 10 mg injected on day 5, none survived
# [15] = Experiment 2, 100 µg injected on day 4
# [16] = Experiment 2, 1 mg injected on day 4
# [17] = Experiment 3, 100 µg injected on day 5
# [18] = Experiment 3, 1 mg injected on day 5
# [19] = animal 1977, treated genetic female, phenotypic male, 31 weeks
# [20] = animal 1978, treated genetic male
# [21] = animal 1981, treated genetic female, phenotypic male, 31 weeks
# [22] = gonadal sex type at day 14, number of embryos, 2.0 mg injected on day 5
compound,measurement,setting,value
"N#Cc1ccc(C2CCCc3cncn32)cc1 (racemic) [± 5-(p-cyanophenyl)-5,6,7,8-tetrahydroimidazo [1,5-α] pyridine hydrochloride]",Female,[1]; [11],2
same,Male,[1]; [11],0
same,Und. (Undetermined),[1]; [11],0
same,Female,[1]; [12],0
same,Male,[1]; [12],3
same,Und. (Undetermined),[1]; [12],0
same,Female,[1]; [13],0
same,Male,[1]; [13],2
same,Und. (Undetermined),[1]; [13],0
same,Female,[1]; [14],0
same,Male,[1]; [14],0
same,Und. (Undetermined),[1]; [14],0
same,Female,[1]; [15],0
same,Male,[1]; [15],3
same,Und. (Undetermined),[1]; [15],1
same,Female,[1]; [16],0
same,Male,[1]; [16],4
same,Und. (Undetermined),[1]; [16],0
same,Female,[1]; [17],0
same,Male,[1]; [17],4
same,Und. (Undetermined),[1]; [17],1
same,Female,[1]; [18],0
same,Male,[1]; [18],5
same,Und. (Undetermined),[1]; [18],0
same,Survived day 14,"[1]; Experiment 1, 20 µg injected on day 5, 4 injected",2
same,Survived day 14,"[1]; Experiment 1, 100 µg injected on day 5, 4 injected",3
same,Survived day 14,"[1]; Experiment 1, 2 mg injected on day 5, 4 injected",2
same,Survived day 14,"[1]; Experiment 1, 10 mg injected on day 5, 4 injected",0
same,Survived day 14,"[1]; Experiment 2, 100 µg injected on day 4, 5 injected",4
same,Survived day 14,"[1]; Experiment 2, 1 mg injected on day 4, 6 injected",4
same,Survived day 14,"[1]; Experiment 3, 100 µg injected on day 5, 7 injected",5
same,Survived day 14,"[1]; Experiment 3, 1 mg injected on day 5, 7 injected",5
same,vent sexed as males,[2],all birds
same,survival,"[3]; 0.01 mg, 10 µg injected on day 5",72%
same,survival,"[3]; 0.05 mg, 50 µg injected on day 0",40%
same,survival,"[3]; 0.05 mg, 50 µg injected on day 5",67%
same,survival,"[3]; 0.1 mg, 100 µg injected on day 5",69%
same,Female,[4]; 10 µg injected on day 5,36
same,Male,[4]; 10 µg injected on day 5,60
same,Female,[4]; 50 µg injected on day 0,2
same,Male,[4]; 50 µg injected on day 0,45
same,Female,[4]; 50 µg injected on day 5,0
same,Male,[4]; 50 µg injected on day 5,88
same,Female,[4]; 100 µg injected on day 5,0
same,Male,[4]; 100 µg injected on day 5,91
same,phenotype of unhatched embryos,"[5]; 1 mg, 2 pipped embryos and 2 embryos that died after 25 and 27 days of incubation",All embryos were phenotypic male
same,vent sexed as male,"[5]; 1 mg, of 4 hatched birds, 2 feather-sexed as female and 2 as male",4
same,birds hatched,"[5]; eggs inoculated with 1 mg, day 4 or 5 of incubation",Four
same,abdominal fat of treated females,"[6]; 31 week old, abdominal cavities opened, compared with control females",absence of abdominal fat
same,treated females developed a male phenotype,"[6]; Sex-Sal autosexing strain, injected day 4 or 5, at sexual maturity",one of two
same,appearance and behavior of treated females,"[6]; by seven months of age, injected day 4 or 5",obviously masculine in appearance and behavior
same,adult females developed male phenotypes,"[6]; hybrids used in Example 3, injected day 4 or 5, at sexual maturity",three of four
same,presence of testes in treated females,"[6]; two gonads without oviducts, at necropsy",three of the four
same,serum hormone profiles of treated females,[7]; 31 week old,resembling adult males
same,Estradiol,"[7]; animal 1976, treated genetic female that did not respond, phenotypically female",57 ng/mL
same,Estradiol,[7]; [19],12 ng/mL
same,Testosterone,[7]; [19],224 ng/mL
same,Estradiol,[7]; [20],5 ng/mL
same,Testosterone,[7]; [20],412 ng/mL
same,Estradiol,[7]; [21],2 ng/mL
same,Testosterone,[7]; [21],109 ng/mL
same,seminiferous tubules in gonads of treated females,[8],present in both the left and right gonads
"C[C@]12C=CC(=O)C=C1C=C[C@@H]1[C@@H]2CC[C@]2(C)C(=O)CC[C@@H]12 [1,4,6-androstatriene-3,17-dione]",birds being males,"[9]; 2 mg injected on day 5, gonads at day 14",100%
same,Female,[9]; [22],0
same,Male,[9]; [22],5
same,Survived day 14,"[9]; number of embryos, 2.0 mg in 1,2-propane-diol injected on day 5",5
O=C(c1ccc(OCCN2CCCC2)cc1)c1c(-c2ccc(O)cc2)sc2cc(O)ccc12 [LY117018],effect on the female Mullerian ducts,[10],little effect
C#C[C@]1(O)CC[C@H]2[C@@H]3CCC4=CC(=O)CC[C@@H]4[C@H]3CC[C@@]21C [norethindrone],effect on the female Mullerian ducts,[10],partial regression of the upper end of the left Mullerian duct as well as complete loss of the lower ends of both ducts
CC/C(=C(\c1ccccc1)c1ccc(OCCN(C)C)cc1)c1ccccc1 [tamoxifen],effect on the female Mullerian ducts,[10],little effect

# From patent publication EP0433084A2, “Use of aromatese inhibitors for the reversal of female sexual phenotype in poultry” (MERCK & CO. INC., priority 1989, dated 1991)
